Test results published in ChEMBL document CHEMBL5113434, “Discovery of novel Thieno[2,3-d]imidazole derivatives as agonists of human STING for antitumor immunotherapy using systemic administration” (Eur J Med Chem, 2022).
pEC50: −log10 of the molar value.

Legend:
[1] = target: T1, Stimulator of interferon genes protein (Homo sapiens, UniProt Q86WV6); experiment: Agonist activity at STING in human THP1-Dual cells assessed as fold change in ISG activation at 10 uM incubated for 24 hrs by Quanti-luc reagent based assay relative to control; type: cell-based; conditions: filed as agonist
T1 sequence (Q86WV6 whole entry): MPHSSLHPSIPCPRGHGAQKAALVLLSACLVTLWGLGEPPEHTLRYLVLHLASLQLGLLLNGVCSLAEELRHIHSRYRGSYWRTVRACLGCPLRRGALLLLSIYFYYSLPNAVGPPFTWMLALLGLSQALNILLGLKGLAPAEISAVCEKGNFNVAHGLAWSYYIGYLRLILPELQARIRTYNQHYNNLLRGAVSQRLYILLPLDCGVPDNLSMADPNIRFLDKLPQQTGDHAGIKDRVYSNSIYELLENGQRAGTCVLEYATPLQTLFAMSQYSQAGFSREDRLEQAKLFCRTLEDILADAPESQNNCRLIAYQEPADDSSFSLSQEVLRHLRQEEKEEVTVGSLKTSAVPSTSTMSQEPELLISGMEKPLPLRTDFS

[2] = target: T2, Stimulator of interferon genes protein (Mus musculus) (UniProt Q3TBT3); experiment: Agonist activity at STING in mouse RAW-Lucia ISG cells assessed as fold change in ISG activation at 50 uM incubated for 24 hrs by Quanti-luc reagent based assay relative to control; type: cell-based; conditions: filed as agonist
T2 sequence (whole entry): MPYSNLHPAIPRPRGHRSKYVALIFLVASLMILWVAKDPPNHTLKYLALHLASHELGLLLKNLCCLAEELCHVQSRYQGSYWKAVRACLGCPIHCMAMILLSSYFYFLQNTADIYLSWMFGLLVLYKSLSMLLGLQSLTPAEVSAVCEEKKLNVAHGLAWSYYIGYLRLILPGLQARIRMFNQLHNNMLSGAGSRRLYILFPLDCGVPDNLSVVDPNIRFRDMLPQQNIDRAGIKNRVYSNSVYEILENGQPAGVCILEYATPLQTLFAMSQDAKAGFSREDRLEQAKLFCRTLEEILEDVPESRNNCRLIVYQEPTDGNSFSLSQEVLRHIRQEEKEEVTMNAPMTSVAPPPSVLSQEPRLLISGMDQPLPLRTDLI

[3] = target: T1, Stimulator of interferon genes protein; experiment: Agonist activity at STING in human THP1-Dual cells assessed as ISG activation incubated for 24 hrs by Quanti-luc reagent based assay; type: cell-based
[4] = target: T3, Stimulator of interferon genes protein (Mus musculus, UniProt Q3TBT3); experiment: Agonist activity at STING in mouse RAW-Lucia ISG cells assessed as ISG activation incubated for 24 hrs by Quanti-luc reagent based assay; type: cell-based
T3 sequence (Q3TBT3 whole entry): T2 sequence (whole entry)

[5] = target: T1, Stimulator of interferon genes protein; experiment: Agonist activity at STING (unknown origin)
[6] = target: T1, Stimulator of interferon genes protein; experiment: Agonist activity at STING in human THP-1 cells; type: cell-based

Row | Structure (SMILES) | fold change (FC) [1] | fold change (FC) [2] | pEC50 [3] | pEC50 [4] | pEC50 [5] | pEC50 [6]
1 | CCn1nc(C)cc1C(=O)Nc1nc2cc(NC(C)=O)ccc2n1CCCCn1c(NC(=O)c2cc(C)nn2CC)nc2cc(C(N)=O)cc(OCCCN3CCOCC3)c21 | 2.32 | 1.18 | – | – | – | –
2 | CCn1nc(C)cc1C(=O)Nc1nc2cc(C(N)=O)sc2n1C/C=C/Cn1c(NC(=O)c2cc(C)nn2CC)nc2cc(C(N)=O)cc(OC(C)C)c21 | 60.4 | 13.5 | 5.24 | 4.20 | – | –
3 | CCn1nc(C)cc1C(=O)Nc1nc2cc(NC(=O)CN)ccc2n1CCCCn1c(NC(=O)c2cc(C)nn2CC)nc2cc(C(N)=O)cc(OCCCN3CCOCC3)c21 | 11 | 1.39 | – | – | – | –
4 | O=C(Nc1cc(F)c(F)cc1C(=O)O)c1ccc(N2C=CNC2)nn1 | – | – | – | – | – | 5.68

Further lines, results first:

Row | fold change (FC) [1] | fold change (FC) [2] | pEC50 [3] | pEC50 [4] | pEC50 [5] | pEC50 [6] | Structure (SMILES)
5 | 49.2 | 10.2 | 5.81 | < 4.00 | – | – | CCn1nc(C)cc1C(=O)Nc1nc2cc(C(N)=O)sc2n1C/C=C/Cn1c(NC(=O)c2cc(C)nn2CC)nc2cc(C(N)=O)cc(OC3COC3)c21
6 | 8.42 | 0.64 | – | – | – | – | CCn1nc(C)cc1C(=O)Nc1nc2cc(C(N)=O)sc2n1CCCCn1c(NC(=O)c2cc(C)nn2CC)nc2cc(C(N)=O)cc(OCCCN3CCOCC3)c21
7 | – | – | – | – | 7.29 | – | Nc1ncnc2c1ncn2[C@@H]1O[C@@H]2COP(=O)(O)O[C@H]3[C@@H](O)[C@H](n4cnc5c(N)ncnc54)O[C@@H]3COP(=O)(O)O[C@H]2[C@H]1O
8 | 80.3 | 1.5 | 5.73 | < 4.00 | – | – | CCn1nc(C)cc1C(=O)Nc1nc2cc(C(N)=O)sc2n1C/C=C/Cn1c(NC(=O)c2cc(C)nn2CC)nc2cc(C(N)=O)cc(O[C@H]3CCOC3)c21
